# Legend:
# Assay type in all cases: in vivo
# Adult male C57BL/6 mice [1] = experiment: Intra-amygdala KA-induced SE in mice, EEG, early post-treatment after seizure onset; conditions: i.c.v. 15 min after KA
# Procedure: (§1) Adult male C57BL/6 mice (20-25 g) were obtained from Harlan UK (Blackthorn, UK). Mice were first anesthetized using isoflurane (3-5%) and maintained normothermic by means of a feedback-controlled heat blanket (Harvard Apparatus Ltd, Kent, UK). Mice were next placed in a stereotaxic frame and three partial craniectomies performed to affix cortical skull-mounted EEG electrodes (Bilaney Consultants Ltd, Sevenoaks, UK). EEG was recorded using a Grass Comet XL digital EEG (Medivent Ltd, Lucan, Ireland). A guide cannula was affixed (coordinates from Bregma: AP = 0.94; L = 2.85 mm) and the assembly fixed in place with dental cement. Anesthesia was then discontinued and freely moving mice were placed inside a clear perspex recording chamber. EEG recordings were commenced and after establishing baseline EEG for a few minutes, an injection cannula was lowered through the guide cannula for injection of kainic acid (KA) (Ocean Produce International, Nova Scotia, Canada) into the basolateral amygdala nucleus (0.3 µg in 0.2 µl phosphate-buffered saline). Non-seizure control mice underwent the same surgical procedure but received 0.2 µl intra-amygdala vehicle. Mice were killed at different time-points (1, 4, 8 or 24 h) later and perfused with saline to remove intravascular blood components. Brains were either flash-frozen whole in 2-methylbutane at […] or perfused with 4% PFA for histopathology, or dissected on ice to obtain whole hippocampus or microdissected to obtain the different hippocampal subfields (CA1, DG and CA3).
# (§2) Digitized EEG recordings were analyzed off-line using manual assessment and automated software. The occurrence of high amplitude high frequency spiking during seizures is synonymous with injury-causing electrographic seizures during SE (also termed type IV electrographic seizures) (Lowenstein et al., 1991; Henshall et al., 2000). The duration of high-frequency (>5 Hz) high-amplitude (>2× baseline) polyspike discharges of ≥5 s duration (HAHFDs) was counted by a reviewer blind to treatment. Further EEG analysis was performed by uploading EEG into Labchart7 software (ADInstruments) to calculate the power spectral density (total power, a measure of the input signal's power (amplitude) over frequency) EEG spectrogram (spectral power against frequency and time).
# (§3) A-438079 (3-[[5-(2,3-Dichlorophenyl)-1H-tetrazol-1-yl]methyl]pyridine hydrochloride) (50 µM) was from Tocris Biosciences (Bristol, U.K.) and the P2X7R specific antibody was from Alomone Labs (APR-008, Alomone Labs, Ltd, Jerusalem, Israel) and injected at 0.7 mg/ml. Lorazepam (Ativan®, Wyeth, Taplow, U.K.) (6 mg/kg) was administered intraperitoneally (i.p.) at 40 or 60 min after KA.
# 15 min after the injection of KA. […]
# Adult male C57BL/6 mice [2] = experiment: Refractory SE model in mice, drugs given 60 min post-KA, EEG during the next hour
# Procedure: as §1, §2, §3
# To model refractory SE, seizures were allowed to continue beyond the normal time when lorazepam is given (40 min) and instead the effects of drugs were recorded 60 min post-KA on the EEG during the next hour.
# [3] = tested on: 10 day old Sprague Dawley rat pups; experiment: Neonatal SE model, intra-amygdala KA in P10 rat pups, EEG; conditions: 150 µmol/kg intraperitoneally, 40 min post-KA
# Procedure: 10 day old Sprague Dawley rat pups were obtained from Harlan UK Limited (Blackthorn, UK). Rat pups were equipped with skull surface EEG and given intra-amygdala microinjection of kainic acid (2 µg) via an implanted guide cannula. P10 rat pups develop SE shortly after KA injection. Seizures in the model are propagated to the hippocampus and surface EEG recordings have previously shown a transition to low amplitude high frequency EEG, developing into high amplitude high frequency epileptiform EEG seizures. The pups display behaviour including initial masticatory movements and salivation, developing to periods of facial and forelimb myoclonus and progressing to the most commonly observed behaviour of wild running, loss of posture and swimming motions. The high amplitude high frequency spiking is sustained and corresponds to wild running and swimming behaviours during recordings 1-2 h after KA. By 4 hours, continuous seizures have abated but the EEG continues to display intermittent lower-amplitude high frequency spiking and high amplitude low frequency spikes even after 24 h. The pathological consequences of neonatal seizures in the model include hippocampal cell death and the animals later display unilateral hippocampal sclerosis.
# as §2, with “time). […]” for “time).”
smiles,measurement,setting,value
"Cl.Clc1cccc(-c2nnnn2Cc2cccnc2)c1Cl [A-438079, 3-[[5-(2,3-Dichlorophenyl)-1H-tetrazol-1-yl]methyl]pyridine hydrochloride]",duration of HAHFDs,"Adult male C57BL/6 mice [1]; recorded until lorazepam at 40 min post-KA, vs vehicle",significantly reduced
same,Total seizure power,"Adult male C57BL/6 mice [1]; until 40 min post-KA, vs vehicle",significantly reduced
same,frequency of the EEG,Adult male C57BL/6 mice [1]; vs vehicle,No changes
same,seizure amplitude,Adult male C57BL/6 mice [1]; spectral heat map during SE,decreased
same,total seizure time (duration of HAHFDs),"Adult male C57BL/6 mice [2]; given 60 min after KA, 60 min recording, vs vehicle",not significantly different
same,seizure activity,"Adult male C57BL/6 mice [2]; given 60 min after KA, particularly within the first 15-30 min following injection",some suppression
same,mice continued in SE,"Adult male C57BL/6 mice [2]; given alone 60 min after KA, number of mice / group",3/5
same,seizures,[3]; P10 rat pups,strongly reduced
same,amplitude,[3]; vs vehicle (PBS),less amplitude
same,total power,[3]; vs vehicle (PBS),less total power

# Reference: patent EP2604265A1, “P2x7 antagonists as frontline or adjunctive treatment against status epilepticus” (Royal College of Surgeons in Ireland (RCSI), priority 2011, dated 2013)
